Here are results for 17 molecules from patent US12534469B2 (CHILDREN'S HOSPITAL MEDICAL CENTER, priority 2020, dated 2026).

Each structure is given as a SMILES string.

In one experiment the test system is MOLM14 F691L cells. Nature of the experiment: MOLM14 F691L cell viability assay (Cell Titer Glo). It is filed as cell-based. On the procedure: (§1) Both cell lines have activated FLT3 receptors, each of which carry additional resistance mutations in the kinase domain (D835Y and F691L, respectively).
(§2) MOLM14 D835Y and MOLM14 F691L cells were grown in RPMI-1640 media supplemented with 20% fetal bovine serum (FBS). For viability/cytotoxicity assessments, cells were seeded into 1536-well white polystyrene tissue culture-treated Greiner plates using a Multidrop Combi dispenser (ThermoFisher), in final volume 5 μL of growth media per well, at a density of 1000 cells per well. After cell addition, 23 nL of test compound were transferred into individual wells (22 doses tested for each test compound, with a 1:2 dilution series starting at 10 μM) via a 1536 pin-tool. Bortezomib (final concentration 2.3 μM) was used as a positive control for cell cytotoxicity. Plates were incubated for 48 hours at standard incubator conditions covered by a stainless steel gasketed lid to prevent evaporation. 48 hours post compound addition, 3 μL of Cell Titer Glo (Promega) were added to each well and plates were incubated at room temperature for 15 minutes with the stainless-steel lid in place. Luminescence readings were taken using a Viewlux imager (PerkinElmer) with a 2 second exposure time per plate.
(In general: Cellular ATP, detected with luciferase, serves as a proxy for viable cell number.)

The next experiment concerns the target T1, FLT3 (Homo sapiens, UniProt P36888).
T1 construct: purchased Reaction Biology (RBC HotSpot Kinase Assay)
T1 sequence (P36888 564-958 limits assumed): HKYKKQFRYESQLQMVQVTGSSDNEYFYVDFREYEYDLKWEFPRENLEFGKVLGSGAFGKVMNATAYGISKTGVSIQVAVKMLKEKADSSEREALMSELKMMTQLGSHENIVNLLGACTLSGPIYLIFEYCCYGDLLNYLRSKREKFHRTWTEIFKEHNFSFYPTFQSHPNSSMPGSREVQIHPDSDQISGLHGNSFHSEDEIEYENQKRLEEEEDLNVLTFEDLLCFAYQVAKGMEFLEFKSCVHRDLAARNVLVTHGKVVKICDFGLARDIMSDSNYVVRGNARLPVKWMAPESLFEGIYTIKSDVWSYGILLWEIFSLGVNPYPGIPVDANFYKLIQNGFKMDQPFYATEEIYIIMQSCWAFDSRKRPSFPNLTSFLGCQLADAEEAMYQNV
Nature of the experiment: RBC HotSpot Kinase Assay, FLT3. In kind it is biochemical. A digest of the protocol:
(§3)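 Radiometric filter-binding (HotSpot) activity assay on isolated recombinant kinase, possibly truncated or catalytic domain only, in 20 mM Hepes pH 7.5, 10 mM MgCl2, 1 mM EGTA, 2 mM DTT, 1% DMSO. Compound preincubated 20 min with kinase and substrate, then ^33P-ATP added. Reaction 2 h at room temperature, read by P81 filter binding.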

For another experiment, the target named is T2, IRAK1 (Homo sapiens, UniProt P51617).
T2 construct: purchased Reaction Biology (RBC HotSpot Kinase Assay)
The experiment is described as follows: RBC HotSpot Kinase Assay, IRAK1. In kind it is biochemical. A digest of the protocol: as §3

The test system of another experiment is MOLM14 D835Y cells. The experiment is described as follows: MOLM14 D835Y cell viability assay (Cell Titer Glo). It is filed as cell-based. On the procedure:
as §1, §2

In the next experiment the target is T3, IRAK4 (Homo sapiens, UniProt Q9NWZ3).
T3 sequence (Q9NWZ3 1-460): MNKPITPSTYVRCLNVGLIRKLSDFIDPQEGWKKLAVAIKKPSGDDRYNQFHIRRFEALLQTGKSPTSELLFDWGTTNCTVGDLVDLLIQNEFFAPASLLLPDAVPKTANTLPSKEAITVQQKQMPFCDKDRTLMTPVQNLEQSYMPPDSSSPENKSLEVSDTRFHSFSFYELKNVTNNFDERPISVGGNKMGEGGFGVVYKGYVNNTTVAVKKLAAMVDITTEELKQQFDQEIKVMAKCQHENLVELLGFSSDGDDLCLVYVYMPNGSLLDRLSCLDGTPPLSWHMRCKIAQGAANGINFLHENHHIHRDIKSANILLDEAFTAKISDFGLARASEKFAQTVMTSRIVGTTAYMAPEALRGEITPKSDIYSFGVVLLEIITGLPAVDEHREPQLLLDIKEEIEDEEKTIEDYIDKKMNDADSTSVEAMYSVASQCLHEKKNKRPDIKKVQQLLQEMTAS
The experiment is described as follows: RBC HotSpot Kinase Assay, IRAK4. It is filed as biochemical. Details: purchased Reaction Biology (RBC HotSpot Kinase Assay). A digest of the protocol:
as §3

T2 sequence (P51617 whole entry): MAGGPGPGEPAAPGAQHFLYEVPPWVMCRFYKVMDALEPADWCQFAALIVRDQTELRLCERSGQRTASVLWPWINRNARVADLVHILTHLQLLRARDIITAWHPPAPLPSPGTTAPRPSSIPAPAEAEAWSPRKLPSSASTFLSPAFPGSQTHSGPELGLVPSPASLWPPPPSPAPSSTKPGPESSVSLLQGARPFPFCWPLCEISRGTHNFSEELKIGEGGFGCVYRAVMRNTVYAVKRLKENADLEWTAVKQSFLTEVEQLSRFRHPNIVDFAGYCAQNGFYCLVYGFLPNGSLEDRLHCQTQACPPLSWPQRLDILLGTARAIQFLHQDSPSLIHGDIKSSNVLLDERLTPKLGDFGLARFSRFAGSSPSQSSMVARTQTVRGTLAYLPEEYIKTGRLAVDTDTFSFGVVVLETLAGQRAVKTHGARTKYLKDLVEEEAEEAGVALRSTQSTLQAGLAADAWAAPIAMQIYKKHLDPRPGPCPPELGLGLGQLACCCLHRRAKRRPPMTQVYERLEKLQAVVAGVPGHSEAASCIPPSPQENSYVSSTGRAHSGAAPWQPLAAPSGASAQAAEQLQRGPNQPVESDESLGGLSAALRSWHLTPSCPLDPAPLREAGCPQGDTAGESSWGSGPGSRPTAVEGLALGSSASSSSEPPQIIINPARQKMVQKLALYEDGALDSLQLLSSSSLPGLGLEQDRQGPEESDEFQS

With `COc1cc2ncc(-c3cccc(N[C@@H]4CCCNC4)n3)n2nc1C(C)(O)C(F)(F)F` (single isomer, unassigned) [Compound 131], the half-maximal inhibitory concentration (IC50) (usually the concentration that gives 50% inhibition) was 545 nM with MOLM14 F691L cells (48 hours); less than 0.5 nM at FLT3; 8200 nM against IRAK1; 69 nM with MOLM14 D835Y cells (48 hours); 424 nM on IRAK4.

As to `COc1cc2ncc(-c3cc(F)cc(N[C@H]4CNC[C@@H]4F)n3)n2nc1C1CC1` [Compound 103, 6-(6-cyclopropyl-7-methoxyimidazo[1,2-b]pyridazin-3-yl)-4-fluoro-N-((3S,4S)-4-fluoropyrrolidin-3-yl)pyridin-2-amine], the IC50 in the experiment with MOLM14 F691L cells (Homo sapiens, MOLM-14, 48 h) was 1450 nM; on FLT3, less than 0.5 nM; at IRAK1, 218 nM; in the experiment with MOLM14 D835Y cells (Homo sapiens, MOLM-14, 48 h), 205 nM; at IRAK4, 16 nM.

In the case of `COc1cc2ncc(-c3cc(F)cc(N[C@H]4CNCC[C@@H]4F)n3)n2nc1C1CC1` [Compound 105, 6-(6-cyclopropyl-7-methoxyimidazo[1,2-b]pyridazin-3-yl)-4-fluoro-N-((3S,4S)-4-fluoropiperidin-3-yl)pyridin-2-amine], the IC50 in the experiment with MOLM14 F691L cells (Homo sapiens, MOLM-14, 48 h) is 1220 nM; against FLT3 it was less than 0.5 nM; against IRAK1 it was 272 nM; in the experiment with MOLM14 D835Y cells (Homo sapiens, MOLM-14, 48 h) it was 231 nM; against IRAK4, 7 nM.

`COc1cc2ncc(-c3cccc(N[C@@H]4CCCNC4)n3)n2nc1C(F)F` [Compound 117, (R)-6-(6-(difluoromethyl)-7-methoxyimidazo[1,2-b]pyridazin-3-yl)-N-(piperidin-3-yl)pyridin-2-amine]: the IC50 with MOLM14 F691L cells (Homo sapiens, MOLM-14, 48 h) is 1370 nM; against FLT3, less than 0.5 nM; at IRAK1, 383 nM; in the experiment with MOLM14 D835Y cells (Homo sapiens, MOLM-14, 48 h) it was 109 nM; at IRAK4 it was 4 nM.

Take `Cn1cc(-c2ccc3ncc(-c4cccc(N[C@H]5CNC[C@@H]5F)n4)n3n2)cn1` [Compound 1, N-((3S,4S)-4-fluoropyrrolidin-3-yl)-6-(6-(1-methyl-1H-pyrazol-4-yl)imidazo[1,2-b]pyridazin-3-yl)pyridin-2-amine]: the IC50 was determined as 1680 nM in the experiment with MOLM14 F691L cells (Homo sapiens, MOLM-14, 48 h); 0.6 nM on FLT3; 331 nM on IRAK1; 60 nM with MOLM14 D835Y cells (Homo sapiens, MOLM-14, 48 h); 13 nM at IRAK4.

With `COc1cc2ncc(-c3cccc(N[C@H]4CNC[C@@H]4F)n3)n2nc1-c1cnn(C)c1` [Compound 121, N-((3S,4S)-4-fluoropyrrolidin-3-yl)-6-(7-methoxy-6-(1-methyl-1H-pyrazol-4-yl)imidazo[1,2-b]pyridazin-3-yl)pyridin-2-amine], the IC50 with MOLM14 F691L cells (Homo sapiens, MOLM-14, 48 h) came to 1370 nM; on FLT3 it was 1 nM; against IRAK1, 778 nM; in the experiment with MOLM14 D835Y cells (Homo sapiens, MOLM-14, 48 h), 97 nM; at IRAK4, 11 nM.

Turning to `COc1cc2ncc(-c3cccc(N[C@H]4CNCC[C@@H]4F)n3)n2nc1-c1cnn(C)c1` [Compound 122, N-((3S,4S)-4-fluoropiperidin-3-yl)-6-(7-methoxy-6-(1-methyl-1H-pyrazol-4-yl)imidazo[1,2-b]pyridazin-3-yl)pyridin-2-amine], the IC50 with MOLM14 F691L cells (Homo sapiens, MOLM-14, 48 h) is 686 nM; against FLT3 it was 0.7 nM; against IRAK1, 537 nM; with MOLM14 D835Y cells (Homo sapiens, MOLM-14, 48 h), 49 nM; on IRAK4, 37 nM.

For `COc1cc2ncc(-c3cccc(N[C@H]4CNCC[C@@H]4F)n3)n2nc1C(C)(O)C(F)(F)F` (single isomer, unassigned; fast-eluting) [Compound 134], the IC50 in the experiment with MOLM14 F691L cells (48 hours) was 1720 nM; against FLT3, less than 0.5 nM; against IRAK1, 8640 nM; in the experiment on MOLM14 D835Y cells (48 hours), 244 nM; on IRAK4, 183 nM.

Regarding `COc1cc2ncc(-c3cccc(N[C@H]4CNC[C@@H]4F)n3)n2nc1C(C)(O)C(F)(F)F` (single isomer, unassigned; slow-eluting) [Compound 135], the IC50 in the experiment with MOLM14 F691L cells (48 hours) was 4330 nM; against FLT3, less than 0.5 nM; at IRAK1, greater than 10000 nM; in the experiment on MOLM14 D835Y cells (48 hours), 386 nM; against IRAK4, 169 nM.

As to `COc1cc2ncc(-c3cccc(N[C@@H]4CCCNC4)n3)n2nc1C(C)(O)C(F)(F)F` (single isomer, unassigned) [Compound 132], the IC50 in the experiment with MOLM14 F691L cells (48 hours) is 3440 nM; against FLT3 it was 5 nM; against IRAK1 it was greater than 10000 nM; in the experiment on MOLM14 D835Y cells (48 hours), 486 nM; at IRAK4 it was 1770 nM.

On to `COc1cc2ncc(-c3cccc(N[C@H]4CNCC[C@@H]4F)n3)n2nc1-c1cnn(C(F)F)c1` [Compound 129, 6-(6-(1-(difluoromethyl)-1H-pyrazol-4-yl)-7-methoxyimidazo[1,2-b]pyridazin-3-yl)-N-((3S,4S)-4-fluoropiperidin-3-yl)pyridin-2-amine], for which the IC50 was 2170 nM with MOLM14 F691L cells (Homo sapiens, MOLM-14, 48 h); less than 0.5 nM on FLT3; 1140 nM at IRAK1; 154 nM in the experiment on MOLM14 D835Y cells (Homo sapiens, MOLM-14, 48 h).

For `COc1cc2ncc(-c3cccc(N[C@H]4CNC[C@@H]4C)n3)n2nc1C1(C(F)(F)F)CC1` [Compound 83, 6-(7-methoxy-6-(1-(trifluoromethyl)cyclopropyl)imidazo[1,2-b]pyridazin-3-yl)-N-((3R,4S)-4-methylpyrrolidin-3-yl)pyridin-2-amine], the IC50 is 0.8 nM against FLT3; 3670 nM against IRAK1; 259 nM in the experiment with MOLM14 D835Y cells (Homo sapiens, MOLM-14, 48 h); 25 nM on IRAK4.

Take `FC(F)COc1cnn2c(-c3cccc(N[C@H]4CNC[C@@H]4F)n3)cnc2c1` [Compound 114, 6-(7-(2,2-difluoroethoxy)imidazo[1,2-b]pyridazin-3-yl)-N-((3S,4S)-4-fluoropyrrolidin-3-yl)pyridin-2-amine]: the IC50 at FLT3 came out at 3 nM; against IRAK1, 3470 nM; in the experiment with MOLM14 D835Y cells (Homo sapiens, MOLM-14, 48 h) it was 326 nM; against IRAK4 it was 94 nM.

`COc1cc2ncc(-c3cccc(N[C@H]4CNC[C@@H]4F)n3)n2nc1C1(C(F)(F)F)CC1` [Compound 82, N-((3S,4S)-4-fluoropyrrolidin-3-yl)-6-(7-methoxy-6-(1-(trifluoromethyl)cyclopropyl)imidazo[1,2-b]pyridazin-3-yl)pyridin-2-amine]: the IC50 at FLT3 came to 1 nM; against IRAK1, 595 nM; in the experiment on MOLM14 D835Y cells (Homo sapiens, MOLM-14, 48 h) it was 357 nM; at IRAK4, 18 nM.

In the case of `F[C@H]1CNCC[C@@H]1Nc1cccc(-c2cnc3ccc(-c4cnn5ccccc45)nn23)n1` [Compound 20, N-((3S,4S)-3-fluoropiperidin-4-yl)-6-(6-(pyrazolo[1,5-a]pyridin-3-yl)imidazo[1,2-b]pyridazin-3-yl)pyridin-2-amine], the IC50 was less than 0.5 nM against FLT3; 3 nM against IRAK1; 333 nM in the experiment with MOLM14 D835Y cells (Homo sapiens, MOLM-14, 48 h); less than 0.5 nM against IRAK4.

On to `COc1cc2ncc(-c3cccc(N[C@@H]4CCCNC4)n3)n2nc1C1CC1` [Compound 101], for which the IC50 in the experiment on MOLM14 F691L cells (Homo sapiens, MOLM-14, 48 h) is 596 nM; against FLT3, less than 0.5 nM; against IRAK1, 2320 nM; on IRAK4, 11 nM.

Turning to `COc1cc2ncc(-c3cccc(N[C@H]4CNCC[C@@H]4F)n3)n2nc1-c1cnn(C(F)F)c1` [Compound 130, 6-(6-(1-(difluoromethyl)-1H-pyrazol-4-yl)-7-methoxyimidazo[1,2-b]pyridazin-3-yl)-N-((3S,4S)-4-fluoropiperidin-3-yl)pyridin-2-amine], the IC50 in the experiment on MOLM14 F691L cells (48 hours) is 1370 nM; on FLT3, less than 0.5 nM; on IRAK1, 734 nM; with MOLM14 D835Y cells (48 hours), 137 nM.
